Source: the supplement of paper PMC10307832

Tests used:
Experiment in all cases: relative viability (nuclei count vs DMSO), 5 days (fraction); higher = more cells survive
NCI-H1993 = system: NCI-H1993
Outline: (§1)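 After 5 days of treatment, lung cancer cells in 1536-well plates were fixed and stained in a single step (final 0.05% Triton X-100, 1% formaldehyde, 1 ug/ml Hoechst) and their nuclei counted on 4× images. Treatment had been applied by pin tool the day after seeding as one drug alone or as a fixed anchor-drug dose with five library-drug doses (not always all listed) in √10 steps. Relative viability is the nuclei count of treated wells divided by that of vehicle wells, and values are medians of duplicate plates.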

NCI-H2009 = system: NCI-H2009
Outline: as §1

NCI-H2170 = system: NCI-H2170
Outline: as §1

NCI-H2228 = system: NCI-H2228
Outline: as §1

NCI-H2347 = system: NCI-H2347
Outline: as §1

NCI-H358 = system: NCI-H358
Outline: as §1

NCI-H522 = system: NCI-H522
Outline: as §1

NCI-H647 = system: NCI-H647
Outline: as §1

NCI-H838 = system: NCI-H838
Outline: as §1

SK-MES-1 = system: SK-MES-1
Outline: as §1

UMC-11 = system: UMC-11
Outline: as §1

`Nc1ccn([C@@H]2O[C@H](CO)[C@@H](O)[C@@H]2O)c(=O)n1` [Cytarabine] + CCNC(=O)c1noc(-c2cc(C(C)C)c(O)cc2O)c1-c1ccc(CN2CCOCC2)cc1 [Luminespib] (partner 0.01 µM) was tested, and the relative viability (NCI-H1993; first compound 0.005 µM) was 0.964, the relative viability (NCI-H1993; first compound 0.01581 µM) was 0.706 and the relative viability (NCI-H1993; first compound 0.05 µM) was 0.695. For the same compound, the relative viability (NCI-H1993; first compound 0.1581 µM) was 0.512, the relative viability (NCI-H1993; first compound 0.5 µM) was 0.525 and the relative viability (NCI-H2009; first compound 0.005 µM) was 0.995. It also gave a relative viability (NCI-H2009; first compound 0.01581 µM) of 1.06, a relative viability (NCI-H2009; first compound 0.05 µM) of 1.04 and a relative viability (NCI-H2009; first compound 0.1581 µM) of 0.775. For the same compound, the relative viability (NCI-H2009; first compound 0.5 µM) was 0.239, the relative viability (NCI-H2170; first compound 0.005 µM) was 0.761 and the relative viability (NCI-H2170; first compound 0.01581 µM) was 0.431. For the same compound, the relative viability (NCI-H2170; first compound 0.05 µM) was 0.248, the relative viability (NCI-H2170; first compound 0.1581 µM) was 0.23 and the relative viability (NCI-H2170; first compound 0.5 µM) was 0.158. The relative viability (NCI-H2228; first compound 0.005 µM) was 0.141, the relative viability (NCI-H2228; first compound 0.01581 µM) was 0.121 and the relative viability (NCI-H2228; first compound 0.05 µM) was 0.141. It also gave a relative viability (NCI-H2228; first compound 0.1581 µM) of 0.116, a relative viability (NCI-H2228; first compound 0.5 µM) of 0.12 and a relative viability (NCI-H2347; first compound 0.005 µM) of 0.284. The relative viability (NCI-H2347; first compound 0.01581 µM) was 0.402, the relative viability (NCI-H2347; first compound 0.05 µM) was 0.39 and the relative viability (NCI-H2347; first compound 0.1581 µM) was 0.255. The relative viability (NCI-H2347; first compound 0.5 µM) was 0.411, the relative viability (NCI-H358; first compound 0.005 µM) was 0.338 and the relative viability (NCI-H358; first compound 0.01581 µM) was 0.582. For the same compound, the relative viability (NCI-H358; first compound 0.05 µM) was 0.34, the relative viability (NCI-H358; first compound 0.1581 µM) was 0.144 and the relative viability (NCI-H358; first compound 0.5 µM) was 0.181. For the same compound, the relative viability (NCI-H522; first compound 0.005 µM) was 1.09, the relative viability (NCI-H522; first compound 0.01581 µM) was 0.953 and the relative viability (NCI-H522; first compound 0.05 µM) was 0.968. The relative viability (NCI-H522; first compound 0.1581 µM) was 0.422, the relative viability (NCI-H522; first compound 0.5 µM) was 0.438 and the relative viability (NCI-H647; first compound 0.005 µM) was 0.146. It also gave a relative viability (NCI-H647; first compound 0.01581 µM) of 0.111, a relative viability (NCI-H647; first compound 0.05 µM) of 0.112 and a relative viability (NCI-H647; first compound 0.1581 µM) of 0.0665. It also gave a relative viability (NCI-H647; first compound 0.5 µM) of 0.0757, a relative viability (NCI-H838; first compound 0.005 µM) of 0.234 and a relative viability (NCI-H838; first compound 0.01581 µM) of 0.3. It also gave a relative viability (NCI-H838; first compound 0.05 µM) of 0.303, a relative viability (NCI-H838; first compound 0.1581 µM) of 0.186 and a relative viability (NCI-H838; first compound 0.5 µM) of 0.167. The relative viability (SK-MES-1; first compound 0.005 µM) was 0.934, the relative viability (SK-MES-1; first compound 0.01581 µM) was 0.565 and the relative viability (SK-MES-1; first compound 0.05 µM) was 0.319. It also gave a relative viability (SK-MES-1; first compound 0.1581 µM) of 0.226, a relative viability (SK-MES-1; first compound 0.5 µM) of 0.232 and a relative viability (UMC-11; first compound 0.005 µM) of 0.792. The relative viability (UMC-11; first compound 0.01581 µM) was 0.591, the relative viability (UMC-11; first compound 0.05 µM) was 0.495 and the relative viability (UMC-11; first compound 0.1581 µM) was 0.357. For the same compound, the relative viability (UMC-11; first compound 0.5 µM) was 0.225.
